Results as given in BindingDB's records for doi:10.7270/Q2T72FVT (University of Pittsburgh, 2007).

target: Serine/threonine-protein kinase PLK1 (Homo sapiens, UniProt P53350); assay: Plk1 polo box domain binding inhibitors, dose response, biochemical, fluorescence polarization (AID 877)
Sequence (P53350 whole entry, the tested form may be a part): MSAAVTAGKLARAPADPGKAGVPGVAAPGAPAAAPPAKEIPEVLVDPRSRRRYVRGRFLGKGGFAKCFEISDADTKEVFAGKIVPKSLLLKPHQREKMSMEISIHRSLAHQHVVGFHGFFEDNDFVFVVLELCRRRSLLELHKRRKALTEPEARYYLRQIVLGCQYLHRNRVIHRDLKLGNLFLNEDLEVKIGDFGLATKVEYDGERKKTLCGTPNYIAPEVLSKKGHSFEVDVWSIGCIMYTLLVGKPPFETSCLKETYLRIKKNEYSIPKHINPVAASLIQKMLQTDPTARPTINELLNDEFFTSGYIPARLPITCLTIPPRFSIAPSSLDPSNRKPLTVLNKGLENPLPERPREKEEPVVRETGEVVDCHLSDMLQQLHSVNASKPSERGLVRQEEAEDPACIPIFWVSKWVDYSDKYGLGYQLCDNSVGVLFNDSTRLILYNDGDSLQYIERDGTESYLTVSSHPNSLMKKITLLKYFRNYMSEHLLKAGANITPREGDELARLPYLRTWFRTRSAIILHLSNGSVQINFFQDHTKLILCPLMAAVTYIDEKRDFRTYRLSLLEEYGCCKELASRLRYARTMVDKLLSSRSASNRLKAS

Row | Compound | IC50
1 | CCn1cnc2sc(C(=O)N3CCN(c4ccc(OC)cc4)CC3)c(C)c2c1=O [3-ethyl-6-[4-(4-methoxyphenyl)piperazin-1-yl]carbonyl-5-methyl-thieno[2,3-d]pyrimidin-4-one] | > 50 µM
2 | O=C1Nc2ccc([N+](=O)[O-])cc2C1(O)N1CCCCC1 (stereo unspecified) [3-hydroxy-5-nitro-3-(1-piperidinyl)-1,3-dihydro-2H-indol-2-one] | > 50 µM
3 | CC1CN(C2CC(C)(C)NC(C)(C)C2)CCC1=O (stereo unspecified) [3-methyl-1-(2,2,6,6-tetramethyl-4-piperidinyl)-4-piperidinone] | > 50 µM
4 | O=C(NC(NC(=S)Nc1ccc(Cl)cc1Cl)C(Cl)(Cl)Cl)c1cccc([N+](=O)[O-])c1 (stereo unspecified) [3-nitro-N-[2,2,2-trichloro-1-({[(2,4-dichlorophenyl)amino]carbonothioyl}amino)ethyl]benzamide] | > 50 µM
5 | Cc1cccc(C)c1NC1=NC(=S)N(c2ccccc2)C12CCOC(C)(C)C2 (stereo unspecified) [4-(2,6-dimethylanilino)-7,7-dimethyl-1-phenyl-8-oxa-1,3-diazaspiro[4.5]dec-3-ene-2-thione] | > 50 µM
6 | Cc1ccccc1Oc1ncnc2oc(-c3ccccc3)cc12 [4-(2-methylphenoxy)-6-phenyl-furo[2,3-d]pyrimidine] | > 50 µM
7 | Cc1ccc(C(=O)c2c[nH]c(C(=O)NCCCN3CCOCC3)c2)cc1 [4-(4-methylbenzoyl)-N-(3-morpholin-4-ylpropyl)-1H-pyrrole-2-carboxamide] | > 50 µM
8 | CN(C)c1ccc(C(=O)Nc2nc3c(s2)CCCC3)cc1 [4-(dimethylamino)-N-(4,5,6,7-tetrahydro-1,3-benzothiazol-2-yl)benzamide] | > 50 µM
9 | O=C(CN1C(=O)COc2ccccc21)NCc1ccc(C(=O)O)cc1 [4-[[2-(3-oxidanylidene-1,4-benzoxazin-4-yl)ethanoylamino]methyl]benzoic acid] | > 50 µM
10 | CCCc1nc2sc3c(c2c(=O)n1NC(=O)CCC(=O)O)CCCC3 [4-keto-4-[(4-keto-2-propyl-5,6,7,8-tetrahydrobenzothiopheno[2,3-d]pyrimidin-3-yl)amino]butyric acid] | > 50 µM
11 | Cc1ccc(C(=O)Nc2cnc3sc(C)nn3c2=O)cc1 [4-methyl-N-(2-methyl-5-oxidanylidene-[1,3,4]thiadiazolo[3,2-a]pyrimidin-6-yl)benzamide] | > 50 µM
12 | CC1(C)CC(=O)C=C(NCc2ccncc2)C1 [5,5-dimethyl-3-(4-pyridylmethylamino)cyclohex-2-en-1-one] | > 50 µM
13 | CC(C)(C)NC(=O)CC(CC(=O)O)c1ccccc1 (stereo unspecified) [5-(tert-butylamino)-5-keto-3-phenyl-valeric acid] | > 50 µM
14 | C=CCn1c2ccccc2c2nnc(SCc3ccc4nonc4c3)nc21 [5-[(5-prop-2-enyl-[1,2,4]triazino[5,6-b]indol-3-yl)sulfanylmethyl]-2,1,3-benzoxadiazole] | > 50 µM
15 | O=C(CNS(=O)(=O)c1ccc(Br)s1)N1CCCC1 [5-bromanyl-N-(2-oxidanylidene-2-pyrrolidin-1-yl-ethyl)thiophene-2-sulfonamide] | > 50 µM
16 | Cc1ccc(NC(=O)C2CC=CCC2C(=O)N2CCCCC2)cc1 (stereo unspecified) [6-(Piperidine-1-carbonyl)-cyclohex-3-enecarboxylic acid p-tolylamide] | > 50 µM
17 | COc1ccc2c3c(cccc13)NN=C2C [6-Methoxy-3-methyl-1H-benzo[de]cinnoline] | > 50 µM
18 | Cc1ccc(Cl)cc1N1CCN(S(=O)(=O)c2ccc3c(c2)oc(=O)n3C)CC1 [6-[4-(5-chloranyl-2-methyl-phenyl)piperazin-1-yl]sulfonyl-3-methyl-1,3-benzoxazol-2-one] | > 50 µM
19 | CC(C)Nc1nnc(SCC(=O)c2c(N)n(Cc3ccccc3)c(=O)n(C)c2=O)s1 [6-amino-1-benzyl-3-methyl-5-[2-[[5-(propan-2-ylamino)-1,3,4-thiadiazol-2-yl]sulfanyl]acetyl]pyrimidine-2,4-dione] | > 50 µM
20 | O=C1CCN2C=Nc3cccc4ccc1c2c34 [7,8-dihydro-9H-pyrido[1,2,3-cd]perimidin-9-one] | 25.1 µM
21 | CCOC(=O)c1c2c(n(C)c1C)C(=O)C(=O)c1ccc(Br)cc1-2 [8-bromo-2,3-dimethyl-4,5-dioxo-1-benzo[e]indolecarboxylic acid ethyl ester] | 10.4 µM

Row | Compound | IC50
22 | Oc1ccc2ccc3cccc[n+]3c2c1 [9-benzo[c]quinolizin-11-iumol;iodide] | 8.73 µM
23 | COc1ccc(N(C)C2=NS(=O)(=O)c3ccccc32)cc1 [(1,1-Dioxo-1H-1lambda*6*-benzo[d]isothiazol-3-yl)-(4-methoxy-phenyl)-methyl-amine] | > 50 µM
24 | CC1Cc2ccccc2N1C(=O)c1ccc2c(c1)nnn2C (stereo unspecified) [(1-methyl-5-benzotriazolyl)-(2-methyl-2,3-dihydroindol-1-yl)methanone] | > 50 µM
25 | COc1cccc(OC)c1C(=O)N1CCN(c2ccccn2)CC1 [(2,6-dimethoxyphenyl)-(4-pyridin-2-ylpiperazin-1-yl)methanone] | > 50 µM
26 | O=[N+]([O-])c1ccc(N2CCNCC2)cc1NCC1CCCO1 (stereo unspecified) [(2-nitro-5-piperazino-phenyl)-(tetrahydrofurfuryl)amine] | > 50 µM
27 | CCOC(=O)Cc1csc(NC(=O)CSc2nnc(-c3ccc(F)cc3)o2)n1 [(2-{2-[5-(4-Fluoro-phenyl)-[1,3,4]oxadiazol-2-ylsulfanyl]-acetylamino}-thiazol-4-yl)-acetic acid ethyl ester] | > 50 µM
28 | CCc1noc(C)c1C(=O)N1CCOCC1 [(3-ethyl-5-methyl-1,2-oxazol-4-yl)-morpholin-4-yl-methanone] | > 50 µM
29 | CC1Cn2c(nnc2-c2cc3ccccc3cc2O)S1 (stereo unspecified) [(3E)-3-(6-methyl-5,6-dihydro-2H-[1,3]thiazolo[2,3-c][1,2,4]triazol-3-ylidene)naphthalen-2-one] | > 50 µM
30 | COc1ccc2c(c1OC)C(=O)OC2CC(=O)O (stereo unspecified) [(4,5-dimethoxy-3-oxo-1,3-dihydro-2-benzofuran-1-yl)acetic acid] | > 50 µM
31 | Nc1cc2nsnc2cc1Br [(6-bromopiazthiol-5-yl)amine] | 40.8 µM
32 | OCC(CO)(CO)N=Cc1cc(Br)ccc1O [(6E)-4-bromanyl-6-[[[2-(hydroxymethyl)-1,3-bis(oxidanyl)propan-2-yl]amino]methylidene]cyclohexa-2,4-dien-1-one] | > 50 µM
33 | C/C(=C\C(=O)Nc1cc(C)on1)c1ccccc1 [(E)-N-(5-methyl-1,2-oxazol-3-yl)-3-phenyl-but-2-enamide] | > 50 µM
34 | CCC(=O)N1CCN(c2ccc(NC(=O)c3ccc4c(c3)OCO4)cc2)CC1 [Benzo[1,3]dioxole-5-carboxylic acid [4-(4-propionyl-piperazin-1-yl)-phenyl]-amide] | > 50 µM
35 | O=C(NC1(C(F)(F)F)NC(=O)N(CC2CCCCC2)C1=O)c1ccco1 (stereo unspecified) [MLS000040678] | > 50 µM
36 | CCn1ccc(C(=O)Nc2ccc(N(C)C(C)=O)cc2)n1 [MLS000043435] | > 50 µM
37 | Cc1ccccc1NS(=O)(=O)c1cc(C(=O)NCc2ccco2)ccc1C [MLS000052108] | > 50 µM
38 | c1ccc(NCc2nnc3n2CCCCC3)cc1 [MLS000057041] | > 50 µM
39 | CCc1nc2cc(Cl)c(Cl)cc2[nH]1 [MLS000064722] | > 50 µM
40 | COc1ccc(C(C)C)cc1S(=O)(=O)Nc1ccc(Cl)cn1 [MLS000071127] | > 50 µM
41 | O=C1C(=C2C(=O)c3ccccc3C2=O)Nc2ccccc21 [MLS000071738] | > 50 µM
42 | CCC(=O)Nc1ccc(-c2nnc(SCC(=O)Nc3nccs3)n2C)cc1 [MLS000076456] | > 50 µM

Row | Compound | IC50
43 | CC(C)OCCCNC(=O)c1ccc(NC(=O)C2CCCO2)cc1 (stereo unspecified) [MLS000086701] | > 50 µM
44 | CCOCCCNC(=O)CCCOc1ccccc1 [MLS000088375] | > 50 µM
45 | CC(C)=CC(=O)NCCc1ccccc1 [MLS000089152] | > 50 µM
46 | O=C(COc1ccccc1)Nc1ccc(S(=O)(=O)N2CCOCC2)cc1 [MLS000108227] | > 50 µM
47 | CCC(C)c1ccc(NC(=O)C2CC2)cc1 (stereo unspecified) [MLS000110184] | > 50 µM
48 | O=C(Nc1nc2ccccc2s1)c1cc2c(s1)-c1ccccc1OC2 [MLS000522634] | > 50 µM
49 | Cn1cc(SCC(=O)Nc2ccc3c(c2)OCCO3)c2ccccc21 [MLS000529783] | > 50 µM
50 | CCC(=O)Nc1ccccc1C(=O)NC1CCCCC1 [MLS000538265] | > 50 µM
51 | Cc1[nH]n2c(=O)cc(-c3ccc([N+](=O)[O-])cc3)nc2c1-c1ccccc1 [MLS000547439] | > 50 µM
52 | CCOc1ccccc1N1CCN(C2=C(NS(=O)(=O)c3cccs3)C(=O)c3ccccc3C2=O)CC1 [MLS000551587] | > 50 µM
53 | O=C(NCCc1ccccc1)/C(=C\c1ccc([N+](=O)[O-])cc1)NC(=O)c1ccccc1 [MLS000575866] | > 50 µM
54 | O=C(NC1(O)C(=O)c2ccccc2C1=O)c1ccccc1 [N-(2-hydroxy-1,3-dioxo-2-indenyl)benzamide] | > 50 µM
55 | CC(=O)N(N=C1Sc2ccccc2C1=O)c1ccccc1C [N-(2-methylphenyl)-N-[(3-oxo-1-benzothiophen-2-ylidene)amino]acetamide] | 37.3 µM
56 | CC(=O)N(N=C1Sc2ccccc2C1=O)c1cccc(C)c1 [N-(3-methylphenyl)-N-[(3-oxidanylidene-1-benzothiophen-2-ylidene)amino]ethanamide] | 32.9 µM
57 | CC(C)N(Cc1cc2ccccc2[nH]c1=O)C(=O)c1cccnc1 [N-[(2-oxo-1H-quinolin-3-yl)methyl]-N-propan-2-ylpyridine-3-carboxamide] | > 50 µM
58 | CC(=O)N(N=C1Sc2ccccc2C1=O)c1ccccc1 [N-[(Z)-(3-ketobenzothiophen-2-ylidene)amino]-N-phenyl-acetamide] | > 50 µM
59 | Cc1cccc2[nH]c3c(N4CCN(C(=O)c5ccco5)CC4)ncnc3c12 [SMR000148910] | > 50 µM
60 | NC(=O)C1CCN(C2=C(Cl)C(=O)c3ccccc3C2=O)CC1 [SMR000180199] | 33.3 µM
61 | COC(=O)c1ccccc1NC1=CC(=NS(=O)(=O)c2cccs2)c2ccccc2C1=O [methyl 2-[[(4E)-1-oxidanylidene-4-thiophen-2-ylsulfonylimino-naphthalen-2-yl]amino]benzoate] | > 50 µM
